# Assay results taken from patent publication US9618513B2, “Compositions and methods for detecting and treating colorectal cancer” (The Regents of the University of Michigan, priority 2014, dated 2017).
# Key:
# Format in all cases: cell-based, human
# [1] = tested on: cyclin-dependent kinase inhibitors, cyclins and CDK4 in DLD-1; assay: Cell cycle gene expression by real-time PCR
# Text: A. GSEA analysis identifies proliferation pathways have positive correlation with IL-22. B. Cell proliferation maker Ki67 was detected by FACS. C. H^3 Thymidine Incorporation was used to detect the function of IL-22 in cell proliferation. D. Cell number was counted after stimulated with IL-22. E. Cells isolated from colon cancer tissue (Tumor cells and Leukocytes) were stimulated with a-CD3 and […] for 3 days, and supernatant mixed with or without anti-IL-22 antibody was co-cultured with DLD1 cells for 24 h to test cell proliferation. F. Cell cyclin-dependent kinase and kinase inhibitors were analyzed by Real-Time PCR.
# The identification of target genes for IL-22 is essential for the determination of the mechanism by which it promotes proliferation in colon cancer cells. As such, the relative mRNA levels in DLD-1 colon cancer cell line was examined by real time quantitative PCR. As expected, IL-22 reduced the expression of the cyclin-dependent kinase inhibitors: p16 (CDKN2A), p18 (CDKN2C), p19 (CDKN2D), p21 (CDKN1A), p27 (CDKN1B), p53 and p57 (CDKN1C).
# The mRNAs were quantified by real-time RT-PCR. SYBR Green Master Mix was used to detect fluorescence. Relative expression was calculated according to the Ct value with normalization to GAPDH.
# [2] = tested on: STAT3 occupancy on gene promoters; assay: STAT3-ChIP assay
# Procedure: (A) IL-22 induced STAT3 phosphorylation. Colon cancer cells were treated with IL-22 for different time points. The protein levels of phosphorylated STAT3 and STAT3 were detected by Western blotting. (B, C) IL-22 induced colon cancer spheres via STAT3. Sphere assay was performed with shSTAT3 colon cancer cells in the presence of IL-22. Results were shown as sphere images (b) and the mean numbers of spheres in triplicate (c). (n=5. P<0.01). (D-F) IL-22 stimulated colon cancer sternness gene expression via STAT3. Colon cancer cells expressing shSTAT3 or scrambled vector were cultured with IL-22. Stem cell core gene mRNAs were detected by real-time PCR after 6 hours (n=5, *P<0.05). (G, H) IL-22 causes STAT3 occupancy on SOX2 promoter areas. STAT3-ChIP assay was performed in DLD-1 cells cultured with or without IL-22. One of at least three experiments is shown.
# (A-C)IL-22 increases STAT3 occupancy on the DOT1L (A), AFF4 (B), and MLLT3 (C) proximal promoter. STAT3-ChIP assay was performed in DLD-1 colon cancer cells cultured with or without IL-22. One of three experiments is shown. (D-F) STAT3 knock down reduces H3K79me2 occupancy at proximal promoters of core stem cell genes. H3K79me2-ChIP was performed in colon cancer cells cultured with IL-22 for 24 hours. One of three experiments is shown.
# A. The protein level of phosphorylated STAT3, STAT1 and STATS were activated by IL-22. B. The effect of STAT3 knock down. C. The effect of IL-22 on cell proliferation was analyzed using H^3 Thymidine Incorporation in Stat3 knock down cells. D. Knock down of STAT3 reduced the expression of EZH2 and SUZ12. E. Based on the ENCODE STAT3-ChIP-Seq data base, STAT3 occupancy on the promoter areas of SUZ12 and EED is shown. F. SUZ12/EED DNA was detected by ChIP assay using an antibody against STAT3, c-fos was used as a positive control.
# ChIP assay was performed according to the protocol with exceptions stated below (Upstate, Millipore; http://www. (followed by) millipore.com/techpublications/tech1/mcproto407). Crosslinking was performed with 1% formaldehyde or 1% paraformaldehyde for 10 minutes. […]
# colon cancer cells = assay: Apoptosis by Annexin V FACS
# Procedure: FIG. 20A-D A. Realtime PCR was used to detected the mRNA level of p53, p21, CCNE1 after stimulated with IL-22 in primary colon cancer cell lines. B. The effect of IL-22 on colon cancer cell apoptosis was analyzed by Annexin V using FACS. C.D The effect of IL-22 on 5-Fu induced apoptosis was also analyzed by Annexin V.
substance,measurement,setting,value
"IL-22: recombinant IL-22 (R&D systems), cytokine interleukin-22","mRNA levels of cyclin A1, D1, D3, E1, E2 and CDK4",[1]; DLD-1,increased
same,"expression of cyclin-dependent kinase inhibitors p16, p18, p19, p21, p27, p53 and p57","[1]; DLD-1, mRNA",reduced
same,recruitment of STAT3 to the SUZ12 and EED promoter,[2]; ChIP realtime PCR,significantly increased
same,STAT3 binding on the SOX2 promoter area,[2]; DLD-1 with or without IL-22,increased
same,"STAT3 binding to the DOT1L, AFF4 and MLLT3 promoter",[2]; DLD-1 with or without IL-22,increased
same,cell apoptosis,colon cancer cells; IL-22 combined with 5-FU,no change
same,cell apoptosis,colon cancer cells; IL-22 stimulation alone,no change
